Measured values published in ChEMBL document CHEMBL6177994 (J Med Chem, 2025).
The source made the active and inactive calls. No cut-off for these calls is given here.

Key:
[1] = Drug concentration in male Balb/c nude mouse plasma xenografted with human PK-59 cells at 10 mg/kg, iv administered as single dose measured after 6 hrs by LC-MS/MS analysis; assay type: ADME, organism-based
[2] = Stability in rat plasma assessed as half life at 1 uM measured up to 120 mins by LC-MS/MS analysis; assay type: ADME, cell-free
[3] = Stability in dog plasma assessed as half life at 1 uM measured up to 120 mins by LC-MS/MS analysis; assay type: ADME, cell-free, Canis lupus familiaris
AGS = assay: Antiproliferative activity against human AGS cells harbouring KRAS G12D mutant assessed as inhibition of cell growth measured after 72 hrs by Cell titer glo method; assay type: functional, cell-based
[4] = Metabolic stability in human liver microsomes assessed as intrinsic clearance at 1 uM preincubated for 3 mins with NADPH and measured up to 60 mins by LC-MS/MS analysis; assay type: ADME, Microsome; settings: time < 63 min, read-out: CLH
GP2d = assay: PROTAC activity at CRBN/KRAS G12D mutant in human GP2d cells assessed as induction of KRAS G12D mutant degradation 0.01 to 100 nM measured after 24 hrs by immunoblot analysis; assay type: cell-based; settings: dose 0.01-100 nM
[5] = Elimination half life in male ICR mouse pancreas at 10 mg/kg, iv measured up to 336 hrs by LC-MS/MS analysis; assay type: ADME, organism-based; settings: read-out: beta t1/2 (converted)
[6] = system: Protein cereblon/GTPase KRas (Homo sapiens), P01116+Q96SW2 [G12D]; assay: PROTAC activity at CRBN/KRAS G12D mutant in human ASPC1 cells assessed as induction of KRAS G12D mutant degradation at 5 nM preincubated with CRBN ligand followed by compound addition and measured after 24 hrs by Western blot analysis; assay type: cell-based
Sequence of Protein cereblon/GTPase KRas (Homo sapiens), P01116+Q96SW2 [G12D] (P01116 whole entry G12D): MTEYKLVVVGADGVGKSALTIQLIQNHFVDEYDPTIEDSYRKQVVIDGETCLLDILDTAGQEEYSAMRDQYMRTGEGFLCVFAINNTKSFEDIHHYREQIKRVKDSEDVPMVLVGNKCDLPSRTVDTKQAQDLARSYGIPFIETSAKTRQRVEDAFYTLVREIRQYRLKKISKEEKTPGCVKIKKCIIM
Sequence of Protein cereblon/GTPase KRas (Homo sapiens), P01116+Q96SW2 [G12D] (Q96SW2 whole entry partner): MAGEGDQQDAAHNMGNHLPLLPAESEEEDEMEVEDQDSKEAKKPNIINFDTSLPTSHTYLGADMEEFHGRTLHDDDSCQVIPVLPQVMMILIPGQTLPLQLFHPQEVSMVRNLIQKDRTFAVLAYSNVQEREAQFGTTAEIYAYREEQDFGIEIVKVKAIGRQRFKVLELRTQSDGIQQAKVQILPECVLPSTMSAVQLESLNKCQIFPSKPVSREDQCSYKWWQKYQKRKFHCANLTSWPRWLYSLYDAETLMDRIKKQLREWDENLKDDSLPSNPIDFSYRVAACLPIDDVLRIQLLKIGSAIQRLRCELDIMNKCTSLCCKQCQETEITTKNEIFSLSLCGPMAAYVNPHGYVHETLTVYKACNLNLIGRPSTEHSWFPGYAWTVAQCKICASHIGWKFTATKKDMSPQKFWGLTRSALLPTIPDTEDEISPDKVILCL

SNU-407 = assay: Antiproliferative activity against human SNU-407 cells harbouring KRAS G12D mutant assessed as inhibition of cell growth measured after 72 hrs by Cell titer glo method; assay type: functional, cell-based
NCI-H358 = assay: Antiproliferative activity against human NCI-H358 cells harbouring KRAS G12C mutant assessed as inhibition of cell growth measured after 72 hrs by Cell titer glo method; assay type: functional, cell-based
[7] = system: Protein cereblon/GTPase KRas (Homo sapiens), P01116+Q96SW2 [G12D]; assay: In vivo PROTAC activity at CRBN/KRAS G12D mutant in male Balb/c nude mouse xenografted with human PK-59 cells assessed as reduction in DUSP4 level in tumor at 10 mg/kg, iv measured after 6 hrs relative to control; assay type: functional, organism-based; design: scale not given: the % may be the effect or the level left
[8] = Antitumor activity against human GP2d cells xenografted in female Balb/c nude mouse model assessed as tumor growth inhibition at 10 mg/kg, iv QW administered weekly and measured after 28 days relative to control; assay type: functional; settings: 672 h, time 28 day, read-out: TGI
[9] = system: Protein cereblon/GTPase KRas (Homo sapiens), P01116+Q96SW2 [G12D]; assay: PROTAC activity at CRBN/KRAS G12D mutant in human ASPC1 cells assessed as induction of KRAS G12D mutant degradation at 1 nM measured up to 36 hrs by immunoblot analysis; assay type: cell-based
[10] = AUC (0 to t) in male ICR mouse at 1 mg/kg, iv measured up to 24 hrs by LC-MS/MS analysis; assay type: ADME, organism-based; settings: in vivo
[11] = Elimination half life in male ICR mouse colon at 10 mg/kg, iv measured up to 336 hrs by LC-MS/MS analysis; assay type: ADME, organism-based; settings: read-out: beta t1/2 (converted)
[12] = Clearance in male Sprague-Dawley rat at 1 mg/kg, iv measured up to 24 hrs by LC-MS/MS analysis; assay type: ADME, organism-based; settings: in vivo
MKN-1 = assay: Antiproliferative activity against human MKN-1 cells harbouring wild type KRAS assessed as inhibition of cell growth measured after 72 hrs by Cell titer glo method; assay type: functional, cell-based
ASPC1 = assay: Antitumor activity against human ASPC1 cells harbouring KRAS G12D mutant xenografted in female Balb/c nude mouse model assessed as tumor regression at 1 to 20 mg/kg, iv QW administered weekly and measured after 28 days; assay type: functional, organism-based; settings: dose 1-20 mg/kg, time 28.0 day
[13] = Drug concentration in male Balb/c nude mouse plasma xenografted with human GP2d cells at 10 mg/kg, iv administered as single dose measured after 6 hrs by LC-MS/MS analysis; assay type: ADME, organism-based
[14] = Inhibition of ERK phosphorylation in human GP2d cells harbouring KRAS G12D mutant measured after 24 hrs; assay type: cell-based
[15] = Metabolic stability in monkey liver microsomes assessed as half life at 1 uM preincubated for 3 mins with NADPH and measured up to 60 mins by LC-MS/MS analysis; assay type: ADME, Macaca mulatta, Microsome; settings: rhesus monkey, time < 63 min
[16] = system: Protein cereblon/GTPase KRas (Homo sapiens), P01116+Q96SW2 [G12D]; assay: In vivo PROTAC activity at CRBN/KRAS G12D mutant in male Balb/c nude mouse xenografted with human PK-59 cells assessed as increase in cleaved caspase 7 level at 10 mg/kg, iv measured up to 168 hrs; assay type: functional, organism-based
Cytochrome P450 2D6 = Cytochrome P450 2D6 (Homo sapiens, UniProt P10635); assay: Inhibition of CYP2D6 in human liver microsomes using dextromethorphan as substrate at 10 uM incubated for 15 mins in presence of NADPH by LC/MS analysis; assay type: ADME, Microsome; settings: 0.25 h
Sequence of Cytochrome P450 2D6 (P10635 whole entry): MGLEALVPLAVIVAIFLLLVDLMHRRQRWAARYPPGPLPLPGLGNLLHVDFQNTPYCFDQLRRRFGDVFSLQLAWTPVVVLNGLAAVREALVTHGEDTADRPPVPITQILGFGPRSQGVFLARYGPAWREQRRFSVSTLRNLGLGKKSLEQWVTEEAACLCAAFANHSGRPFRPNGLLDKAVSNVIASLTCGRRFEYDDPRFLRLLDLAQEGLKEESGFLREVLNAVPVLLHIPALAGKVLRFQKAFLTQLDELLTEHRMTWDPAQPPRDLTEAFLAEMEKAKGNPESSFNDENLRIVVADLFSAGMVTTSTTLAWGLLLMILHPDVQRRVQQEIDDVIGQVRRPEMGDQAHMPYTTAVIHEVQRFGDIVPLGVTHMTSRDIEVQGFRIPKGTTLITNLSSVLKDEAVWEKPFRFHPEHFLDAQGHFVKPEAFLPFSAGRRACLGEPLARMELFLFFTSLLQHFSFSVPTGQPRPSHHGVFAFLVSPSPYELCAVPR

SK-LU-1 = assay: Antiproliferative activity against human SK-LU-1 cells harbouring KRAS G12D mutant assessed as inhibition of cell growth measured after 72 hrs by Cell titer glo method; assay type: functional, cell-based
[17] = Metabolic stability in dog liver microsomes assessed as half life at 1 uM preincubated for 3 mins with NADPH and measured up to 60 mins by LC-MS/MS analysis; assay type: ADME, Canis lupus familiaris, Microsome; settings: time < 63 min
[18] = biological target: Protein cereblon/Eukaryotic peptide chain release factor GTP-binding subunit ERF3A (Homo sapiens) (UniProt Q96SW2+P15170); assay: PROTAC activity at CRBN/GSPT1 in human ASPC1 cells assessed as induction of GSPT1 degradation at 10 to 1000 nM measured after 24 hrs by immunoblot analysis; assay type: cell-based; settings: dose 10-1000 nM
Sequence of Protein cereblon/Eukaryotic peptide chain release factor GTP-binding subunit ERF3A (Homo sapiens) (P15170 whole entry, looked up): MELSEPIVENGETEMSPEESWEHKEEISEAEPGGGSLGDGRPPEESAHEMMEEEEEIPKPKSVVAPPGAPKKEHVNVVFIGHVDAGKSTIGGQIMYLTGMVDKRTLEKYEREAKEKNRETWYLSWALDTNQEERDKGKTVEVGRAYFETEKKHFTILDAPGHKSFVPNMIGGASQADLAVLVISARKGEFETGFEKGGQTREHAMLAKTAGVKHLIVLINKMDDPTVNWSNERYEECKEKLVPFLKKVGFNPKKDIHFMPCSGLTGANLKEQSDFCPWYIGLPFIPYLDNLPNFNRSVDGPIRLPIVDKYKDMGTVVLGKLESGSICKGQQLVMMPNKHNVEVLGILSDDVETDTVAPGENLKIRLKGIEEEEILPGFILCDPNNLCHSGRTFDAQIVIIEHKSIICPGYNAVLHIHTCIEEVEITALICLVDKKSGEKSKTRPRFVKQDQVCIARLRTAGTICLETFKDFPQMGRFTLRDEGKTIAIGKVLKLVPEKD
Sequence of Protein cereblon/Eukaryotic peptide chain release factor GTP-binding subunit ERF3A (Homo sapiens) (Q96SW2 whole entry, looked up): as the sequence (Q96SW2 whole entry partner) above

[19] = Stability in human hepatocyte assessed as intrinsic clearance at 100 uM measured up to 120 mins by LC-MS/MS analysis; assay type: ADME, cell-based; settings: hepatocytes, read-out: CLH
[20] = Toxicity in female Balb/c nude mouse xenografted with human GP2d cells assessed as drug tolerance at 1 to 10 mg/kg, iv Q2W measured after 28 days; assay type: organism-based; settings: in vivo, 672 h, dose 1-10 mg/kg, time 28 day
[21] = Toxicity in female Balb/c nude mouse xenografted with human GP2d cells assessed as drug tolerance at 1 to 10 mg/kg, iv QW measured after 28 days; assay type: organism-based; settings: in vivo, 672 h, dose 1-10 mg/kg, time 28 day
[22] = Metabolic stability in mouse liver microsomes assessed as half life at 1 uM preincubated for 3 mins with NADPH and measured up to 60 mins by LC-MS/MS analysis; assay type: ADME, Microsome; settings: time < 63 min
[23] = Inhibition of ERK phosphorylation in human PK-59 cells harbouring KRAS G12D mutant measured after 24 hrs; assay type: cell-based; settings: PK-59, 24 h
[24] = system: Protein cereblon/GTPase KRas (Homo sapiens), P01116+Q96SW2 [G12D]; assay: In vivo PROTAC activity at CRBN/KRAS G12D mutant in male Balb/c nude mouse xenografted with human PK-59 cells assessed as reduction in ERK phosphorylation level in tumor at 10 mg/kg, iv measured up to 168 hrs; assay type: functional, organism-based
[25] = Volume of distribution at steady state in male Sprague-Dawley rat at 1 mg/kg, iv measured up to 24 hrs by LC-MS/MS analysis; assay type: ADME, organism-based; settings: in vivo, read-out: Vdss

Work on `C#Cc1c(F)ccc2cc(O)cc(-c3ncc4c(N5CC6CCC(C5)N6)nc(OCC5(CN6CCC7(CC6)CC(N6CCC(c8cc9c(cc8F)c(N8CCC(=O)NC8=O)nn9C)CC6)C7)CC5)nc4c3F)c12` yielded a concentration at 6 h [1] of 270 ng/mL, a half-life at 1 µM [2] of 12.8 h and a half-life at 1 µM [3] of 7.22 h. For the same molecule, the IC50 (AGS) was 1.01 nM, the CLint scaled at 1 µM [4] was 8.1 mL/min/kg and the Activity (GP2d) was “Active”. The half-life [5] was 330 h, the Activity [6] was “Active” and the Activity (SNU-407) was “Active; Compound Showed Stronger Antiproliferative Activity Compared To Mrtx1133”. The Activity (NCI-H358) was “Weak_effect; Compound Showed Weaker Potency In Antiproliferative Activity Compared To Mrtx1133”, the Activity [7] was 11% and the inhibition in vivo at 10 mg/kg [8] was 30.9%. The Activity [9] was “Active”, the AUC(0-t) at 24 h [10] was 0.397 µM·h and the half-life [11] was 94.6 h. For the same molecule, the clearance [12] was 33 mL/min/kg, the Activity (MKN-1) was “Weak_effect; Compound Showed Weaker Potency In Antiproliferative Activity Compared To Mrtx1133” and the Activity (ASPC1) was “Weak_effect”. It also gave a concentration at 6 h [13] of 113 ng/mL, an IC50 [14] of 0.35 nM and a half-life at 1 µM [15] of 7.22 h. The Activity [16] was “Active”, the “inhibition (INH)” value (Cytochrome P450 2D6) was “Not_active” and the Activity (SK-LU-1) was “Active; Compound Showed Stronger Antiproliferative Activity Compared To Mrtx1133”. For the same molecule, the half-life at 1 µM [17] was 7.22 h, the Activity [18] was “inactive” and the CLint scaled at 100 µM [19] was 5.8 mL/min/kg. For the same molecule, the Activity [20] was “Non-toxic”, the Activity [21] was “Non-toxic” and the half-life at 1 µM [22] was 7.22 h. For the same molecule, the IC50 [23] was 2.7 nM, the Activity [24] was “Active” and the Vd [25] was 10.3 L/kg.
